Data on 25 substances can be found in the OligoGym collection.

HELM strings list units from the 5' end as sugar, base in round brackets, then linkage (d deoxyribose, r ribose, m 2'-O-methyl, p phosphodiester). Strings are as the collection lists them; they lack the last nucleoside at the 3' end of the tested compound. [moe] = 2'-O-(2-methoxyethyl) (MOE); [sp] = phosphorothioate linkage; [m5C] = 5-methylcytosine

The series concerns the target GFAP. The series can be described thus: mouse, dose not given. Particulars: ASO.
On to “RNA1{[moe](T)[sp].[moe]([m5C])p.[moe](A)p.[moe](G)p.[moe](T)p.d(T)[sp].d(T)[sp].d(T)[sp].d([m5C])[sp].d([m5C])[sp].d(T)[sp].d([m5C])[sp].d([m5C])[sp].d(A)[sp].d(G)[sp].[moe]([m5C])p.[moe](A)p.[moe](G)[sp].[moe]([m5C])}$$$$ (last 3' nucleoside missing)”, for which the 3 h FOB score amounted to 2 score 0-7. On to “RNA1{[moe](T)[sp].[moe]([m5C])p.[moe](A)p.[moe](G)p.[moe]([m5C])[sp].d([m5C])[sp].d(T)[sp].d(G)[sp].d(G)[sp].d(T)[sp].d(T)[sp].d(A)[sp].d(G)[sp].[moe]([m5C])p.[moe]([m5C])p.[moe](T)[sp].[moe](T)}$$$$ (last 3' nucleoside missing)”, for which the 3 h FOB score was determined as 3 score 0-7. For “RNA1{[moe](T)[sp].[moe]([m5C])p.[moe](A)p.[moe](G)p.[moe]([m5C])p.[moe]([m5C])p.d(T)[sp].d(G)[sp].d(G)[sp].d(T)[sp].d(T)[sp].d(A)[sp].d(G)[sp].d([m5C])[sp].d([m5C])[sp].d(T)[sp].[moe](T)p.[moe](T)[sp].[moe]([m5C])}$$$$ (last 3' nucleoside missing)” the value was 4 score 0-7; for “RNA1{[moe](T)[sp].[moe]([m5C])p.[moe](A)p.[moe](G)p.[moe]([m5C])p.d([m5C])[sp].d(T)[sp].d(G)[sp].d(G)[sp].d(T)[sp].d(T)[sp].d(A)[sp].d(G)[sp].d([m5C])[sp].d([m5C])[sp].[moe](T)p.[moe](T)p.[moe](T)[sp].[moe]([m5C])}$$$$ (last 3' nucleoside missing)”, 4 score 0-7. Substance “RNA1{[moe](T)[sp].[moe]([m5C])p.[moe](A)p.[moe](G)p.d([m5C])[sp].d([m5C])[sp].d(T)[sp].d(G)[sp].d(G)[sp].d(T)[sp].d(T)[sp].d(A)[sp].d(G)[sp].d([m5C])[sp].[moe]([m5C])p.[moe](T)p.[moe](T)p.[moe](T)[sp].[moe]([m5C])}$$$$ (last 3' nucleoside missing)” returned a 3 h FOB score of 4 score 0-7. As for “RNA1{[moe](T)[sp].[moe]([m5C])p.[moe](A)p.[moe]([m5C])p.[moe](A)[sp].d(T)[sp].d(T)[sp].d([m5C])[sp].d(A)[sp].d([m5C])[sp].d(T)[sp].d(A)[sp].d(A)[sp].[moe](T)p.[moe](A)p.[moe](T)[sp].[moe](T)}$$$$ (last 3' nucleoside missing)”, the 3 h FOB score stood at 0 score 0-7. For “RNA1{[moe](T)[sp].[moe]([m5C])p.[moe](A)p.[moe]([m5C])p.[moe](A)[sp].d([m5C])[sp].d(T)[sp].d([m5C])[sp].d([m5C])[sp].d(T)[sp].d([m5C])[sp].d(A)[sp].d(G)[sp].d([m5C])[sp].d(T)[sp].[moe](A)p.[moe](G)p.[moe](G)[sp].[moe](T)}$$$$ (last 3' nucleoside missing)” the value was 1 score 0-7. As to “RNA1{[moe](T)[sp].[moe]([m5C])p.[moe](A)p.[moe]([m5C])p.[moe](A)p.[moe](T)p.d(T)[sp].d([m5C])[sp].d(A)[sp].d([m5C])[sp].d(T)[sp].d(A)[sp].d(A)[sp].d(T)[sp].d(A)[sp].d(T)[sp].[moe](T)p.[moe](T)[sp].[moe](A)}$$$$ (last 3' nucleoside missing)”, the 3 h FOB score was found to be 0 score 0-7. Take “RNA1{[moe](T)[sp].[moe]([m5C])p.[moe](A)p.[moe]([m5C])p.[moe](A)p.d(T)[sp].d(T)[sp].d([m5C])[sp].d(A)[sp].d([m5C])[sp].d(T)[sp].d(A)[sp].d(A)[sp].d(T)[sp].d(A)[sp].[moe](T)p.[moe](T)p.[moe](T)[sp].[moe](A)}$$$$ (last 3' nucleoside missing)”: the 3 h FOB score amounted to 0 score 0-7.

As for “RNA1{[moe](T)[sp].[moe]([m5C])p.[moe](A)p.[moe]([m5C])p.d(A)[sp].d(T)[sp].d(T)[sp].d([m5C])[sp].d(A)[sp].d([m5C])[sp].d(T)[sp].d(A)[sp].d(A)[sp].d(T)[sp].[moe](A)p.[moe](T)p.[moe](T)p.[moe](T)[sp].[moe](A)}$$$$ (last 3' nucleoside missing)”, the 3 h FOB score is 0 score 0-7. With “RNA1{[moe](T)[sp].[moe]([m5C])p.[moe](T)p.[moe](G)p.[moe](T)[sp].d(G)[sp].d([m5C])[sp].d(T)[sp].d(T)[sp].d(T)[sp].d(A)[sp].d(G)[sp].d(T)[sp].d(G)[sp].d(A)[sp].[moe]([m5C])p.[moe]([m5C])p.[moe](T)[sp].[moe](G)}$$$$ (last 3' nucleoside missing)”, the 3 h FOB score was determined as 4 score 0-7. “RNA1{[moe](T)[sp].[moe]([m5C])p.[moe](T)p.[moe](G)p.[moe]([m5C])[sp].d(T)[sp].d([m5C])[sp].d(G)[sp].d(G)[sp].d(G)[sp].d([m5C])[sp].d([m5C])[sp].d([m5C])[sp].d([m5C])[sp].d(T)[sp].[moe]([m5C])p.[moe](A)p.[moe](T)[sp].[moe](G)}$$$$ (last 3' nucleoside missing)” returned a 3 h FOB score of 2 score 0-7.

For “RNA1{[moe](T)[sp].[moe]([m5C])p.[moe](T)p.[moe](G)p.[moe]([m5C])[sp].d([m5C])[sp].d(A)[sp].d(T)[sp].d(T)[sp].d(T)[sp].d(A)[sp].d(T)[sp].d([m5C])[sp].[moe](T)p.[moe](G)p.[moe](T)[sp].[moe](G)}$$$$ (last 3' nucleoside missing)”, the 3 h FOB score worked out at 3 score 0-7. In the case of “RNA1{[moe](T)[sp].[moe]([m5C])p.[moe](T)p.[moe](G)p.[moe]([m5C])[sp].d([m5C])[sp].d(A)[sp].d(T)[sp].d(T)[sp].d(T)[sp].d(A)[sp].d(T)[sp].d([m5C])[sp].d(T)[sp].d(G)[sp].[moe](T)p.[moe](G)p.[moe]([m5C])[sp].[moe](T)}$$$$ (last 3' nucleoside missing)”, the 3 h FOB score was 0 score 0-7.

Consider “RNA1{[moe](T)[sp].[moe]([m5C])p.[moe](T)p.[moe](G)p.[moe]([m5C])p.d([m5C])[sp].d(A)[sp].d(T)[sp].d(T)[sp].d(T)[sp].d(A)[sp].d(T)[sp].d([m5C])[sp].d(T)[sp].d(G)[sp].[moe](T)p.[moe](G)p.[moe]([m5C])[sp].[moe](T)}$$$$ (last 3' nucleoside missing)”, for which the 3 h FOB score is 1 score 0-7.

In turn, “RNA1{[moe](T)[sp].[moe]([m5C])p.[moe](T)p.[moe](T)p.[moe](T)[sp].d(A)[sp].d(T)[sp].d(T)[sp].d(T)[sp].d(T)[sp].d(T)[sp].d([m5C])[sp].d([m5C])[sp].[moe](T)p.[moe]([m5C])p.[moe](A)[sp].[moe](G)}$$$$ (last 3' nucleoside missing)” displayed a 3 h FOB score of 1 score 0-7. For “RNA1{[moe](T)[sp].[moe]([m5C])p.[moe](T)p.[moe](T)p.[moe](T)[sp].d(A)[sp].d(T)[sp].d(T)[sp].d(T)[sp].d(T)[sp].d(T)[sp].d([m5C])[sp].d([m5C])[sp].d(T)[sp].d([m5C])[sp].[moe](A)p.[moe](G)p.[moe]([m5C])[sp].[moe](G)}$$$$ (last 3' nucleoside missing)” the value was 1 score 0-7. For “RNA1{[moe](T)[sp].[moe]([m5C])p.[moe](T)p.[moe](T)p.[moe](T)p.[moe](A)p.d(T)[sp].d(T)[sp].d(T)[sp].d(T)[sp].d(T)[sp].d([m5C])[sp].d([m5C])[sp].d(T)[sp].d([m5C])[sp].d(A)[sp].[moe](G)p.[moe]([m5C])[sp].[moe](G)}$$$$ (last 3' nucleoside missing)” the value was 0 score 0-7.

On to “RNA1{[moe](T)[sp].[moe]([m5C])p.[moe](T)p.[moe](T)p.d(T)[sp].d(A)[sp].d(T)[sp].d(T)[sp].d(T)[sp].d(T)[sp].d(T)[sp].d([m5C])[sp].d([m5C])[sp].d(T)[sp].[moe]([m5C])p.[moe](A)p.[moe](G)p.[moe]([m5C])[sp].[moe](G)}$$$$ (last 3' nucleoside missing)”, for which the 3 h FOB score is 1 score 0-7.

On to “RNA1{[moe](T)[sp].[moe]([m5C])p.[moe](T)p.[moe]([m5C])p.[moe](A)[sp].d(G)[sp].d(T)[sp].d(T)[sp].d(T)[sp].d(T)[sp].d([m5C])[sp].d([m5C])[sp].d(T)[sp].d([m5C])[sp].d([m5C])[sp].[moe](A)p.[moe](G)p.[moe]([m5C])[sp].[moe](A)}$$$$ (last 3' nucleoside missing)”, for which the 3 h FOB score came out at 4 score 0-7. In the case of “RNA1{[moe](T)[sp].[moe]([m5C])p.[moe](T)p.[moe]([m5C])p.[moe](T)[sp].d([m5C])[sp].d([m5C])[sp].d(T)[sp].d(G)[sp].d(T)[sp].d(T)[sp].d(T)[sp].d([m5C])[sp].d(A)[sp].d(G)[sp].[moe]([m5C])p.[moe](A)p.[moe](T)[sp].[moe]([m5C])}$$$$ (last 3' nucleoside missing)”, the 3 h FOB score was determined as 3 score 0-7. For “RNA1{[moe](T)[sp].[moe]([m5C])p.[moe]([m5C])p.[moe](T)p.[moe](G)[sp].d([m5C])[sp].d([m5C])[sp].d(T)[sp].d([m5C])[sp].d(A)[sp].d([m5C])[sp].d(A)[sp].d(T)[sp].d([m5C])[sp].d(A)[sp].[moe]([m5C])p.[moe](A)p.[moe](T)[sp].[moe]([m5C])}$$$$ (last 3' nucleoside missing)” the value was 0 score 0-7. In the case of “RNA1{[moe](T)[sp].[moe]([m5C])p.[moe]([m5C])p.[moe](T)p.[moe]([m5C])[sp].d(A)[sp].d(A)[sp].d(G)[sp].d(A)[sp].d(A)[sp].d([m5C])[sp].d([m5C])[sp].d(G)[sp].d(G)[sp].d(A)[sp].[moe](T)p.[moe]([m5C])p.[moe](T)[sp].[moe]([m5C])}$$$$ (last 3' nucleoside missing)”, the 3 h FOB score worked out at 1 score 0-7.

As for “RNA1{[moe]([m5C])[sp].[moe](A)p.[moe](A)p.[moe](G)p.[moe]([m5C])[sp].d(T)[sp].d([m5C])[sp].d(T)[sp].d(G)[sp].d([m5C])[sp].d([m5C])[sp].d(A)[sp].d(G)[sp].d(T)[sp].d(T)[sp].[moe](T)p.[moe](A)p.[moe](A)[sp].[moe](T)}$$$$ (last 3' nucleoside missing)”, the 3 h FOB score is 5 score 0-7. For “RNA1{[moe]([m5C])[sp].[moe](A)p.[moe](G)p.[moe](G)p.[moe](G)[sp].d([m5C])[sp].d(T)[sp].d(A)[sp].d([m5C])[sp].d([m5C])[sp].d(T)[sp].d(T)[sp].d(G)[sp].d(T)[sp].d([m5C])[sp].[moe](T)p.[moe](G)p.[moe](T)[sp].[moe](G)}$$$$ (last 3' nucleoside missing)” the value was 6 score 0-7.
